According to the OligoGym collection:
HELM strings list units from the 5' end as sugar, base in round brackets, then linkage (d deoxyribose, r ribose, m 2'-O-methyl, p phosphodiester). Strings are as the collection lists them; they lack the last nucleoside at the 3' end of the tested compound. [moe] = 2'-O-(2-methoxyethyl) (MOE); [sp] = phosphorothioate linkage; [m5C] = 5-methylcytosine

Biological target: SCN2A
Test: mouse, dose not given
Settings: ASO

RNA1{[moe]([m5C])[sp].[moe](A)p.[moe](T)p.[moe](G)p.[moe](T)p.d(A)[sp].d(A)[sp].d(T)[sp].d([m5C])[sp].d(A)[sp].d([m5C])[sp].d(T)[sp].d(T)[sp].d(T)[sp].d([m5C])[sp].[moe](A)p.[moe](T)p.[moe]([m5C])[sp].[moe]([m5C])}$$$$ (last 3' nucleoside missing)
3 h FOB score: 0 score 0-7

RNA1{[moe]([m5C])[sp].[moe](A)p.[moe](T)p.[moe](G)p.[moe](T)p.[moe](A)p.d(A)[sp].d([m5C])[sp].d([m5C])[sp].d(T)[sp].d(T)[sp].d(T)[sp].d(A)[sp].d(T)[sp].d(A)[sp].d([m5C])[sp].[moe](A)p.[moe](T)[sp].[moe](T)}$$$$ (last 3' nucleoside missing)
3 h FOB score: 0 score 0-7

RNA1{[moe](A)[sp].[moe](A)p.[moe](T)p.[moe]([m5C])p.[moe](A)p.[moe]([m5C])p.d(T)[sp].d(T)[sp].d(T)[sp].d([m5C])[sp].d(A)[sp].d(T)[sp].d([m5C])[sp].d([m5C])[sp].d(A)[sp].d([m5C])[sp].[moe](G)p.[moe](A)[sp].[moe]([m5C])}$$$$ (last 3' nucleoside missing)
3 h FOB score: 0 score 0-7

RNA1{[moe](A)[sp].[moe](A)p.[moe](G)p.[moe](T)p.[moe](A)p.d(G)[sp].d(T)[sp].d(A)[sp].d([m5C])[sp].d([m5C])[sp].d(A)[sp].d(T)[sp].d(T)[sp].d([m5C])[sp].d([m5C])[sp].[moe]([m5C])p.[moe](A)p.[moe](T)[sp].[moe]([m5C])}$$$$ (last 3' nucleoside missing)
3 h FOB score: 0 score 0-7

RNA1{[moe]([m5C])[sp].[moe](A)p.[moe]([m5C])p.[moe](G)p.[moe](A)p.[moe]([m5C])p.d(A)[sp].d(T)[sp].d(A)[sp].d(T)[sp].d(T)[sp].d(T)[sp].d(T)[sp].d(T)[sp].d([m5C])[sp].d(T)[sp].[moe](A)p.[moe]([m5C])[sp].[moe](A)}$$$$ (last 3' nucleoside missing)
3 h FOB score: 0.5 score 0-7

RNA1{[moe]([m5C])[sp].[moe](T)p.[moe](G)p.[moe](G)p.d(A)[sp].d([m5C])[sp].d([m5C])[sp].d(G)[sp].d(T)[sp].d([m5C])[sp].d(T)[sp].d([m5C])[sp].d(T)[sp].d(T)[sp].[moe](T)p.[moe]([m5C])p.[moe](T)p.[moe](T)[sp].[moe](A)}$$$$ (last 3' nucleoside missing)
3 h FOB score: 1 score 0-7

RNA1{[moe]([m5C])[sp].[moe](A)p.[moe]([m5C])p.[moe](G)p.d(A)[sp].d([m5C])[sp].d(A)[sp].d(T)[sp].d(A)[sp].d(T)[sp].d(T)[sp].d(T)[sp].d(T)[sp].d(T)[sp].[moe]([m5C])p.[moe](T)p.[moe](A)p.[moe]([m5C])[sp].[moe](A)}$$$$ (last 3' nucleoside missing)
3 h FOB score: 0 score 0-7

RNA1{[moe](A)[sp].[moe]([m5C])p.[moe]([m5C])p.[moe](A)p.[moe]([m5C])p.d(G)[sp].d([m5C])[sp].d(T)[sp].d(T)[sp].d(A)[sp].d([m5C])[sp].d(A)[sp].d(T)[sp].d([m5C])[sp].d(A)[sp].[moe](A)p.[moe](A)p.[moe]([m5C])[sp].[moe](A)}$$$$ (last 3' nucleoside missing)
3 h FOB score: 0.33 score 0-7

RNA1{[moe](A)[sp].[moe](G)p.[moe]([m5C])p.[moe](A)p.d(T)[sp].d(G)[sp].d(T)[sp].d(T)[sp].d(T)[sp].d(A)[sp].d(T)[sp].d([m5C])[sp].d(T)[sp].d(T)[sp].[moe](A)p.[moe](G)p.[moe](T)p.[moe](T)[sp].[moe]([m5C])}$$$$ (last 3' nucleoside missing)
3 h FOB score: 0 score 0-7

RNA1{[moe](A)[sp].[moe](G)p.[moe]([m5C])p.[moe](T)p.[moe]([m5C])p.d(T)[sp].d(T)[sp].d(T)[sp].d(T)[sp].d(T)[sp].d([m5C])[sp].d(A)[sp].d([m5C])[sp].d(T)[sp].d(T)[sp].[moe](T)p.[moe](T)p.[moe](G)[sp].[moe](G)}$$$$ (last 3' nucleoside missing)
3 h FOB score: 0.67 score 0-7

RNA1{[moe](T)[sp].[moe]([m5C])p.[moe](T)p.[moe](G)p.[moe]([m5C])p.[moe](A)p.d(T)[sp].d(G)[sp].d(T)[sp].d(A)[sp].d(A)[sp].d([m5C])[sp].d([m5C])[sp].d(T)[sp].d(T)[sp].d(T)[sp].[moe](A)p.[moe](T)[sp].[moe](A)}$$$$ (last 3' nucleoside missing)
3 h FOB score: 0 score 0-7

RNA1{[moe]([m5C])[sp].[moe](T)p.[moe](A)p.[moe](T)p.[moe](T)[sp].d(T)[sp].d(T)[sp].d(A)[sp].d(T)[sp].d(A)[sp].d(A)[sp].d(A)[sp].d(T)[sp].[moe](G)p.[moe]([m5C])p.[moe]([m5C])[sp].[moe](G)}$$$$ (last 3' nucleoside missing)
3 h FOB score: 0 score 0-7

RNA1{[moe]([m5C])[sp].[moe](A)p.[moe]([m5C])p.[moe](G)p.[moe]([m5C])p.d(T)[sp].d(T)[sp].d(A)[sp].d([m5C])[sp].d(A)[sp].d(T)[sp].d([m5C])[sp].d(A)[sp].d(A)[sp].d(A)[sp].[moe]([m5C])p.[moe](A)p.[moe](T)[sp].[moe]([m5C])}$$$$ (last 3' nucleoside missing)
3 h FOB score: 0 score 0-7

RNA1{[moe]([m5C])[sp].[moe](T)p.[moe](G)p.[moe]([m5C])p.[moe](A)p.[moe](T)[sp].d(G)[sp].d(T)[sp].d(A)[sp].d(A)[sp].d([m5C])[sp].d([m5C])[sp].d(T)[sp].d(T)[sp].[moe](T)p.[moe](A)[sp].[moe](T)}$$$$ (last 3' nucleoside missing)
3 h FOB score: 0 score 0-7

RNA1{[moe](T)[sp].[moe]([m5C])p.[moe](T)p.[moe](T)p.[moe](T)p.d([m5C])[sp].d(T)[sp].d(T)[sp].d(A)[sp].d(T)[sp].d(T)[sp].d(T)[sp].d([m5C])[sp].d(T)[sp].d(G)[sp].[moe](T)p.[moe](T)p.[moe](T)[sp].[moe]([m5C])}$$$$ (last 3' nucleoside missing)
3 h FOB score: 1.67 score 0-7

RNA1{[moe](A)[sp].[moe](A)p.[moe](T)p.[moe]([m5C])p.d(A)[sp].d([m5C])[sp].d(T)[sp].d(T)[sp].d(T)[sp].d([m5C])[sp].d(A)[sp].d(T)[sp].d([m5C])[sp].d([m5C])[sp].[moe](A)p.[moe]([m5C])p.[moe](G)p.[moe](A)[sp].[moe]([m5C])}$$$$ (last 3' nucleoside missing)
3 h FOB score: 0.33 score 0-7

RNA1{[moe](T)[sp].[moe]([m5C])p.[moe](T)p.[moe](G)p.[moe]([m5C])[sp].d(A)[sp].d(T)[sp].d(G)[sp].d(T)[sp].d(A)[sp].d(A)[sp].d([m5C])[sp].d([m5C])[sp].[moe](T)p.[moe](T)p.[moe](T)[sp].[moe](A)}$$$$ (last 3' nucleoside missing)
3 h FOB score: 1 score 0-7

RNA1{[moe](T)[sp].[moe]([m5C])p.[moe]([m5C])p.[moe](A)p.d([m5C])[sp].d(G)[sp].d(A)[sp].d([m5C])[sp].d(A)[sp].d(T)[sp].d(A)[sp].d(T)[sp].d(T)[sp].d(T)[sp].[moe](T)p.[moe](T)p.[moe]([m5C])p.[moe](T)[sp].[moe](A)}$$$$ (last 3' nucleoside missing)
3 h FOB score: 0 score 0-7

RNA1{[moe](T)[sp].[moe](G)p.[moe]([m5C])p.[moe](A)p.[moe](T)[sp].d(G)[sp].d(T)[sp].d(A)[sp].d(A)[sp].d([m5C])[sp].d([m5C])[sp].d(T)[sp].d(T)[sp].[moe](T)p.[moe](A)p.[moe](T)[sp].[moe](A)}$$$$ (last 3' nucleoside missing)
3 h FOB score: 0 score 0-7

RNA1{[moe](T)[sp].[moe](A)p.[moe](A)p.[moe](T)p.[moe]([m5C])p.d(A)[sp].d([m5C])[sp].d(T)[sp].d(T)[sp].d(T)[sp].d([m5C])[sp].d(A)[sp].d(T)[sp].d([m5C])[sp].d([m5C])[sp].[moe](A)p.[moe]([m5C])p.[moe](G)[sp].[moe](A)}$$$$ (last 3' nucleoside missing)
3 h FOB score: 0 score 0-7

RNA1{[moe](T)[sp].[moe](G)p.[moe]([m5C])p.[moe](A)p.d(T)[sp].d(A)[sp].d(A)[sp].d(T)[sp].d([m5C])[sp].d([m5C])[sp].d([m5C])[sp].d(A)[sp].d(T)[sp].d(T)[sp].[moe](A)p.[moe](T)p.[moe](A)p.[moe]([m5C])[sp].[moe](A)}$$$$ (last 3' nucleoside missing)
3 h FOB score: 0 score 0-7

RNA1{[moe](A)[sp].[moe](T)p.[moe](G)p.[moe]([m5C])p.d(A)[sp].d(T)[sp].d(A)[sp].d(A)[sp].d(T)[sp].d([m5C])[sp].d([m5C])[sp].d([m5C])[sp].d(A)[sp].d(T)[sp].[moe](T)p.[moe](A)p.[moe](T)p.[moe](A)[sp].[moe]([m5C])}$$$$ (last 3' nucleoside missing)
3 h FOB score: 0 score 0-7

RNA1{[moe](T)[sp].[moe](G)p.[moe](G)p.[moe]([m5C])p.[moe](T)p.d(A)[sp].d(T)[sp].d(A)[sp].d([m5C])[sp].d(T)[sp].d([m5C])[sp].d(A)[sp].d(T)[sp].d(T)[sp].d(G)[sp].[moe]([m5C])p.[moe](T)p.[moe]([m5C])[sp].[moe](T)}$$$$ (last 3' nucleoside missing)
3 h FOB score: 1 score 0-7

RNA1{[moe](T)[sp].[moe](G)p.[moe]([m5C])p.[moe](T)p.[moe]([m5C])p.d(A)[sp].d([m5C])[sp].d(T)[sp].d(G)[sp].d(T)[sp].d([m5C])[sp].d([m5C])[sp].d(T)[sp].d(A)[sp].d(T)[sp].[moe](T)p.[moe](G)p.[moe](A)[sp].[moe](A)}$$$$ (last 3' nucleoside missing)
3 h FOB score: 4 score 0-7

RNA1{[moe](T)[sp].[moe](A)p.[moe](T)p.[moe](T)p.d(T)[sp].d(T)[sp].d(T)[sp].d([m5C])[sp].d(T)[sp].d(A)[sp].d([m5C])[sp].d(A)[sp].d([m5C])[sp].d(T)[sp].[moe](G)p.[moe]([m5C])p.[moe](T)p.[moe](G)[sp].[moe]([m5C])}$$$$ (last 3' nucleoside missing)
3 h FOB score: 0 score 0-7

RNA1{[moe](G)[sp].[moe](A)p.[moe]([m5C])p.[moe]([m5C])p.d(G)[sp].d(T)[sp].d([m5C])[sp].d(T)[sp].d([m5C])[sp].d(T)[sp].d(T)[sp].d(T)[sp].d([m5C])[sp].d(T)[sp].[moe](T)p.[moe](A)p.[moe](T)p.[moe](T)[sp].[moe](T)}$$$$ (last 3' nucleoside missing)
3 h FOB score: 0 score 0-7
